Consider 35 compounds from patent US8012975B2, “Antitumoral analogs of ET-743” (Pharma Mar, S.A., priority 2000, dated 2011).

In assay [1] the test system is MEL-28. The assay is described as follows: Cytotoxic activity IC50, MEL-28. The settings on record: Homo sapiens, SK-MEL-28, read-out: CYTOTOXIC ACTIVITIY IC50 (μM) MEL-28, MEL-28.
For assay [2], the system named is A-549. The assay is described as follows: Cytotoxic activity IC50, A-549. The settings on record: Homo sapiens, A549, read-out: CYTOTOXIC ACTIVITIY IC50 (μM) A-549, A-549.
In assay [3] the test system is P-388. The assay is described as follows: Cytotoxic activity IC50, P-388. The note with it: Mus musculus, P388, read-out: CYTOTOXIC ACTIVITIY IC50 (μM) P-388.
In assay [4] the test system is HT-29. The assay can be described thus: Cytotoxic activity IC50, HT-29. The note with it: Homo sapiens, HT-29, read-out: CYTOTOXIC ACTIVITIY IC50 (μM) HT-29, HT-29.
Assay [5] deals with DU-145. The assay can be described thus: Cytotoxic activity IC50, DU-145. The note with it: Homo sapiens, DU-145, read-out: CYTOTOXIC ACTIVITIY IC50 (μM) DU-145, DU-145.

Take `COc1c(C)cc2c(c1O)[C@@H]1C3[C@@H]4SCC(=O)C(=O)OC[C@@H](c5c6c(c(C)c(OC(C)=O)c54)OCO6)N3[C@@H](C#N)[C@H](C2)N1C` (stereo partly drawn): the IC50 in assay [1], in assay [2], in assay [3] and in assay [4] was 0.1 µM each time.
In the case of `COC1=C(C)C(=O)C2=C(C1=O)[C@H](CNC(C)=O)N1C(C2)[C@H]2c3c(cc(C)c(OC)c3O)C[C@@H]([C@@H]1C#N)N2C` (stereo partly drawn), the IC50 in assay [1], in assay [2], in assay [3] and in assay [4] was 0.005 µM in each case.
In the case of `COc1c(C)cc2c(c1O)[C@@H]1C3Cc4c(OC(C)=O)c(C)c5c(c4[C@H](CNC(=O)CC(C)C)N3[C@@H](O)[C@H](C2)N1C)OCO5` (stereo partly drawn), the IC50 in assay [1] is 0.0008 µM; in assay [2], 0.001 µM; in assay [3] it was 0.0008 µM; in assay [5], 0.001 µM; in assay [4], 0.0008 µM.
Regarding `COc1c(C)cc2c(c1O)[C@@H]1C3Cc4c(OC(C)=O)c(C)c5c(c4[C@H](CNC(=O)[C@@H](C)NC(=O)CC(C)C)N3[C@@H](O)[C@H](C2)N1C)OCO5` (stereo partly drawn), the IC50 in assay [1], in assay [2], in assay [3], in assay [5] and in assay [4] was 0.001 µM in each case.
Regarding `COc1c(C)cc2c(c1O)[C@@H]1C3Cc4c(OC(C)=O)c(C)c5c(c4[C@H](CNC(=O)[C@@H](NC(=O)OCc4ccccc4)C(C)C)N3[C@@H](C#N)[C@H](C2)N1C)OCO5` (stereo partly drawn), the IC50 in assay [1], in assay [2], in assay [3], in assay [5] and in assay [4] was 0.001 µM each time.
As for `COc1c(C)cc2c(c1O)[C@@H]1C3Cc4c(OC(C)=O)c(C)c5c(c4[C@H](CNC(=O)[C@H](C)NC(=O)CCc4ccccc4)N3[C@@H](C#N)[C@H](C2)N1C)OCO5` (stereo partly drawn), the IC50 in assay [1] worked out at 0.001 µM; in assay [2], 0.001 µM; in assay [3] it was 0.0006 µM; in assay [5], 0.0006 µM; in assay [4] it was 0.0006 µM.
With `CCC(=O)N[C@@H](C)C(=O)NC[C@H]1c2c(c(OC(C)=O)c(C)c3c2OCO3)CC2[C@H]3c4c(cc(C)c(OC)c4O)C[C@@H]([C@H](C#N)N21)N3C` (stereo partly drawn), the IC50 in assay [1], in assay [2], in assay [3], in assay [5] and in assay [4] was 0.0007 µM in each case.
`C/C=C/C(=O)N[C@@H](C)C(=O)NC[C@H]1c2c(c(OC(C)=O)c(C)c3c2OCO3)CC2[C@H]3c4c(cc(C)c(OC)c4O)C[C@@H]([C@H](C#N)N21)N3C` (stereo partly drawn): the IC50 in assay [1] was 0.001 µM; in assay [2], 0.007 µM; in assay [3], 0.001 µM; in assay [5] it was 0.007 µM; in assay [4], 0.001 µM.
For `COc1c(C)cc2c(c1O)[C@@H]1C3Cc4c(OC(C)=O)c(C)c5c(c4[C@H](CNC(=O)[C@H](C)NC(=O)[C@@H](NC(=O)OCc4ccccc4)C(C)C)N3[C@@H](C#N)[C@H](C2)N1C)OCO5` (stereo partly drawn), the IC50 in assay [1], in assay [2], in assay [3], in assay [5] and in assay [4] was 0.01 µM throughout.
With `CCCC(=O)N[C@@H](C)C(=O)NC[C@H]1c2c(c(OC(C)=O)c(C)c3c2OCO3)CC2[C@H]3c4c(cc(C)c(OC)c4O)C[C@@H]([C@H](O)N21)N3C` (stereo partly drawn), the IC50 in assay [1], in assay [2], in assay [3], in assay [5] and in assay [4] was 0.001 µM throughout.
On to `COCOc1c(OC)c(C)cc2c1[C@@H]1C3Cc4c(OC(C)=O)c(C)c5c(c4[C@H](COC(=O)/C=C/c4ccccc4)N3[C@@H](C#N)[C@H](C2)N1C)OCO5` (stereo partly drawn), for which the IC50 in assay [3] stood at 0.01 µM.
Turning to `COc1c(C)cc2c(c1O)[C@@H]1C3Cc4c(OC(C)=O)c(C)c5c(c4[C@H](CNC(=O)[C@H](Cc4ccccc4)NC(=O)OC(C)(C)C)N3[C@@H](C#N)[C@H](C2)N1C)OCO5` (stereo partly drawn), the IC50 in assay [2] and in assay [4] was 0.0013 µM in each case.
On to `COc1c(C)cc2c(c1O)[C@@H]1C3Cc4c(OC(C)=O)c(C)c5c(c4[C@H](CNC(=O)[C@@H](NC(=O)OC(C)(C)C)C(C)C)N3[C@@H](C#N)[C@H](C2)N1C)OCO5` (stereo partly drawn), for which the IC50 in assay [2] and in assay [4] was 0.007 µM throughout.
On to `COc1c(C)cc2c(c1O)[C@@H]1C3Cc4c(OC(C)=O)c(C)c5c(c4[C@H](CNC(=O)[C@@H]4CCCN4C(=O)OC(C)(C)C)N3[C@@H](C#N)[C@H](C2)N1C)OCO5` (stereo partly drawn), for which the IC50 in assay [2] and in assay [4] was 0.014 µM each time.
In the case of `COc1c(C)cc2c(c1O)[C@@H]1C3Cc4c(OC(C)=O)c(C)c5c(c4[C@H](CNC(=O)[C@H](Cc4c[nH]c6ccccc46)NC(=O)OC(C)(C)C)N3[C@@H](C#N)[C@H](C2)N1C)OCO5` (stereo partly drawn), the half-maximal inhibitory concentration (IC50) in assay [2] and in assay [4] was 0.00012 µM each time.
For the compound `COc1c(C)cc2c(c1O)[C@@H]1C3Cc4c(OC(C)=O)c(C)c5c(c4[C@H](CNC(=O)[C@H](Cc4c[nH]c6ccccc46)NC(=O)OC(C)(C)C)N3[C@@H](O)[C@H](C2)N1C)OCO5` (stereo partly drawn), the IC50 in assay [2] worked out at 0.012 µM.
Take `COc1c(C)cc2c(c1O)[C@@H]1C3Cc4c(OC(C)=O)c(C)c5c(c4[C@H](CNC(=O)c4cccnc4Cl)N3[C@@H](C#N)[C@H](C2)N1C)OCO5` (stereo partly drawn): the 50% inhibitory concentration (IC50) in assay [2] is 0.00015 µM.
The same measure, in the same setting: the figure for `COc1c(C)cc2c(c1O)[C@@H]1C3Cc4c(OC(C)=O)c(C)c5c(c4[C@H](CNC(=O)c4cccnc4Cl)N3[C@@H](O)[C@H](C2)N1C)OCO5` (stereo partly drawn) is 0.00015 µM; for `COc1c(C)cc2c(c1O)[C@@H]1C3Cc4c(OC(C)=O)c(C)c5c(c4[C@H](CNC(=O)CC4CCCCC4)N3[C@@H](C#N)[C@H](C2)N1C)OCO5` (stereo partly drawn) it is 0.0015 µM; for `COc1c(C)cc2c(c1OC(=O)CC1CCCCC1)[C@@H]1C3Cc4c(OC(C)=O)c(C)c5c(c4[C@H](CNC(=O)CC4CCCCC4)N3[C@@H](C#N)[C@H](C2)N1C)OCO5` (stereo partly drawn) it is 0.013 µM.
For `COc1c(C)cc2c(c1O)[C@@H]1C3Cc4c(OC(C)=O)c(C)c5c(c4[C@H](CNC(=O)CCC4CCCCC4)N3[C@@H](C#N)[C@H](C2)N1C)OCO5` (stereo partly drawn), in assay [2], the IC50 turned out to be 0.0015 µM.
Turning to `COc1c(C)cc2c(c1OC(=O)CCC1CCCCC1)[C@@H]1C3Cc4c(OC(C)=O)c(C)c5c(c4[C@H](CNC(=O)CCC4CCCCC4)N3[C@@H](C#N)[C@H](C2)N1C)OCO5` (stereo partly drawn), the IC50 in assay [2] is 0.12 µM.
Consider `CCCC(=O)Oc1c(OC)c(C)cc2c1[C@@H]1C3Cc4c(OC(C)=O)c(C)c5c(c4[C@H](CNC(=O)CCc4ccccc4)N3[C@@H](C#N)[C@H](C2)N1C)OCO5` (stereo partly drawn), for which the IC50 in assay [2] and in assay [4] was 0.0014 µM throughout.
Regarding `CCCCCC(=O)Oc1c(OC)c(C)cc2c1[C@@H]1C3Cc4c(OC(C)=O)c(C)c5c(c4[C@H](CNC(=O)CCc4ccccc4)N3[C@@H](C#N)[C@H](C2)N1C)OCO5` (stereo partly drawn), the IC50 in assay [2] and in assay [4] was 0.013 µM in each case.
Take `CCCC(=O)Oc1c(OC)c(C)cc2c1[C@@H]1C3Cc4c(OC(C)=O)c(C)c5c(c4[C@H](CNC(=O)C(C)NC(=O)CCc4ccccc4)N3[C@@H](C#N)[C@H](C2)N1C)OCO5` (stereo partly drawn): the IC50 in assay [2] and in assay [4] was 0.012 µM in each case.
In the case of `CCCCCC(=O)Oc1c(OC)c(C)cc2c1[C@@H]1C3Cc4c(OC(C)=O)c(C)c5c(c4[C@H](CNC(=O)C(C)NC(=O)CCc4ccccc4)N3[C@@H](C#N)[C@H](C2)N1C)OCO5` (stereo partly drawn), the IC50 in assay [2] and in assay [4] was 0.06 µM in each case.
`COc1c(C)cc2c(c1OC(C)=O)[C@@H]1C3Cc4c(OC(C)=O)c(C)c5c(c4[C@H](CNC(=O)[C@@H](C)NC(=O)C(F)(F)F)N3[C@@H](C#N)[C@H](C2)N1C)OCO5` (stereo partly drawn): the IC50 in assay [2] and in assay [4] was 0.013 µM each time.
For the compound `CCCC(=O)Oc1c(OC)c(C)cc2c1[C@@H]1C3Cc4c(OC(C)=O)c(C)c5c(c4[C@H](CNC(=O)[C@H](C)NC(=O)C(F)(F)F)N3[C@@H](C#N)[C@H](C2)N1C)OCO5` (stereo partly drawn), the IC50 in assay [2] and in assay [4] was 0.13 µM in each case.
In the case of `COc1c(C)cc2c(c1OC(C)=O)[C@@H]1C3Cc4c(OC(C)=O)c(C)c5c(c4[C@H](CNC(=O)[C@@H](C)N(C(C)=O)C(=O)C(F)(F)F)N3[C@@H](C#N)[C@H](C2)N1C)OCO5` (stereo partly drawn), the IC50 in assay [2] and in assay [4] was 0.12 µM throughout.
Turning to `CCCC(=O)Oc1c(OC)c(C)cc2c1[C@@H]1C3Cc4c(OC(C)=O)c(C)c5c(c4[C@H](CN(C(=O)CCC)C(=O)[C@H](C)N(C(=O)CCC)C(=O)C(F)(F)F)N3[C@@H](C#N)[C@H](C2)N1C)OCO5` (stereo partly drawn), the IC50 in assay [2] and in assay [4] was 0.11 µM throughout.
Turning to `CCCCCC(=O)Oc1c(OC)c(C)cc2c1[C@@H]1C3Cc4c(OC(C)=O)c(C)c5c(c4[C@H](CNC(=O)[C@H](C)NC(=O)C(F)(F)F)N3[C@@H](C#N)[C@H](C2)N1C)OCO5` (stereo partly drawn), the IC50 in assay [2] and in assay [4] was 0.012 µM in each case.
For the compound `C=CCNC[C@H]1c2c(c(OC(C)=O)c(C)c3c2OCO3)CC2[C@H]3c4c(cc(C)c(OC)c4O)C[C@@H]([C@H](C#N)N21)N3C` (stereo partly drawn), the IC50 in assay [2] and in assay [4] was 0.0018 µM throughout.
`C=CCOc1c(C)c2c(c3c1CC1[C@H]4c5c(cc(C)c(OC)c5O)C[C@@H]([C@H](C#N)N1[C@H]3COC(=O)/C=C/c1ccccc1)N4C)OCO2` (stereo partly drawn): the half-maximal inhibitory concentration (IC50) in assay [2] and in assay [4] was 0.0015 µM in each case.
For the compound `COCOc1c(OC)c(C)cc2c1[C@@H]1C3CC4C(=O)C(C)=C5OCOC5=C4[C@H](COC(=O)/C(CSCC4c5ccccc5-c5ccccc54)=N/OC)N3[C@@H](C#N)[C@H](C2)N1C` (stereo partly drawn), the half-maximal inhibitory concentration (IC50) in assay [2] and in assay [4] was greater than 1 µM throughout.
Turning to `C=CCOC1C(C)=C2OCOC2=C2C1CC1[C@H]3c4c(cc(C)c(OC)c4OCOC)C[C@@H]([C@H](C#N)N1[C@H]2COC(=O)/C(=C/SCC1c2ccccc2-c2ccccc21)OCOC)N3C` (stereo partly drawn), the IC50 in assay [2] and in assay [4] was 0.056 µM throughout.

What is called IC50 is the concentration that gives 50% inhibition.
